# Laboratory results published in ChEMBL document CHEMBL3045666, “The phytotoxicity of natural tetramic acid derivatives” (Pest Manag Sci, 2011).
# Experiments:
# Helianthus annuus [1] = experiment: Herbicidal activity against Helianthus annuus (sunflower) assessed as growth reduction at 1 mg/ha; format: functional
# Ipomoea hederacea [2] = experiment: Herbicidal activity against Ipomoea hederacea (ivy-leaved morning glory) assessed as growth reduction at 1 mg/ha; format: functional
# Avena fatua [3] = experiment: Herbicidal activity against Avena fatua assessed as growth reduction at 1 mg/ha; format: functional
# Setaria faberi [4] = experiment: Herbicidal activity against Setaria faberi (Giant Foxtail) assessed as growth reduction at 1 mg/ha; format: functional
# [5] = Inhibition of PS2 at 100 uM
# Lemna minor [6] = experiment: Herbicidal activity against Lemna minor (common duckweed) at 100 uM; format: functional
# [7] = Inhibition of PS2 at 50 uM
# Lemna minor [8] = experiment: Herbicidal activity against Lemna minor (common duckweed) at 50 uM; format: functional; details: read-out: GI
# Synechococcus = experiment: Antimicrobial activity against cyanobacteria Synechococcus PCC 6911 assessed as growth inhibition; format: functional
# Tetradesmus obliquus = experiment: Antimicrobial activity against Acutodesmus obliquus SAG 276-1 assessed as growth inhibition; format: functional
# Desmodesmus subspicatus = experiment: Antimicrobial activity against Scenedesmus subspicatus SAG 86.81 assessed as growth inhibition; format: functional
# Helianthus annuus [9] = experiment: Herbicidal activity against Helianthus annuus (sunflower) assessed as growth reduction at 3 mg/ha; format: functional
# Ipomoea hederacea [10] = experiment: Herbicidal activity against Ipomoea hederacea (ivy-leaved morning glory) assessed as growth reduction at 3 mg/ha; format: functional
# Avena fatua [11] = experiment: Herbicidal activity against Avena fatua assessed as growth reduction at 3 mg/ha; format: functional
# Setaria faberi [12] = experiment: Herbicidal activity against Setaria faberi (Giant Foxtail) assessed as growth reduction at 3 mg/ha; format: functional
smiles,measurement,setting,value
C[C@@H]1/C(O)=C2/C(=O)N[C@H](Cc3ccc(cc3)OC[C@H]3O[C@@H]3CCC1O)C2=O (stereo not given in full) [MACROCIDIN B],growth inhibition (GI),Helianthus annuus [1],50%
same,growth inhibition (GI),Ipomoea hederacea [2],0%
same,growth inhibition (GI),Avena fatua [3],0%
same,growth inhibition (GI),Setaria faberi [4],20%
CCCCCC#CC#C/C=C/CC(C)C[C@@H]1C[C@H](C)/C(=C2/C(=O)C(C)N(C)C2=O)N1N (stereo not given in full) [FISCHERELLIN A],inhibition,[5],98%
same,inhibition at 100 µM,Lemna minor [6],74%
same,inhibition,[7],60%
same,inhibition of growth at 50 µM,Lemna minor [8],44%
same,MIC,Synechococcus,0.5 µM
same,MIC,Tetradesmus obliquus,0.5 µM
same,MIC,Desmodesmus subspicatus,0.5 µM
C[C@H]1CCC[C@H]2O[C@@H]2COc2ccc(cc2)C[C@H]2NC(=O)/C(=C/1O)C2=O [MACROCIDIN A],growth inhibition (GI),Helianthus annuus [9],50%
same,growth inhibition (GI),Ipomoea hederacea [10],0%
same,growth inhibition (GI),Avena fatua [11],0%
same,growth inhibition (GI),Setaria faberi [12],65%
